Assay results from patent publication US20140057860A1, “PHARMACEUTICAL COMPOSITION FOR TREATING CARDIOVASCULAR AND CEREBROVASCULAR DISEASES AND METHOD OF MANUFACTURING THE SAME” (Macau University of Science and Technology, priority 2012, published 2014).
Like-named read-outs stand apart in the source and are kept apart here.

Tests used:
Caco-2 monolayers [1] = assay type: in vitro ADME; settings: human
human MRP2 = target: T1, human MRP2 (Homo sapiens, UniProt Q92887); experiment: MRP2 membrane vesicles transport assay with scutellarin as probe (Example 13); assay type: biochemical
T1 construct: purchased BD Biosciences; host or cells: insect Sf9 cells
Procedure: With some changes in BD protocol of MRP2 vesicles assay, a rapid filtration technique of multiscreen HTS vacuum manifold (Millipore) was used in the analysis. […] The mixture was incubated in the buffer (250 mM sucrose, 10 mM MgCl2, 10 mM Tris/HCl, pH 7.4) at 37° C. for […], followed by addition of 15 μl of 25 mM MgATP or blank buffer to each well started the test. The mixture was incubated for 4 min and stopped by transferring the membrane vesicles to a filter plate.

Caco-2 monolayers [2] = assay type: in vitro ADME, human
Procedure: Caco-2 cells were seeded on 24-well Millicell insert filters with a density of about 1×10^5 cells/well. These cells were cultured for 21 days to reach confluence and differentiation. The integrity of Caco-2 cell monolayers was evaluated by monitoring trans-epithelial electrical resistance (TEER) on an epithelial volt ohmmeter (World Precision Instruments, Sarasota, Fla., USA). The impermeability (gate functions) of epithelial cell monolayers was measured by the fluorescein leakage test (FLT) that provided information on the effects of xenobiotics on the impermeability of epithelial cell monolayers. The differentiation was assessed using the alkaline phosphatase (ALP) assay at 562 nm
After the above measured parameters of the Caco-2 model became stable, transport study was performed from the apical (AP) to the basolateral (BL) side and from BL to AP at 37° C. Following 30 min of equilibration after the addition of 400 μl HBSS (pH 7.4) in AP side and 600 μl in BL side in an atmosphere of 5% CO2, the test solutions containing 100 μM scutellarin or each of 100 μg/ml of five surfactants Cremophor® EL, Cremophor® RH, Labrasol®, Pluronic® F68, and Pluronic® F127; each of 100 μg/ml of three oils Labrafac Lipophile® WL1349, Maisine® 35-1, and Capmul® MCM; each of 100 μg/ml of three co-surfactants Transcutol®, PEG 400, and PEG 2000; and each of 100 μg/ml of four solid carriers β-cyclodextrin, lactose, HPMC K4M®, HPMC K100®. The solutions were all dissolved in DMSO and HBSS and then added to the donor side. The sample of 100 μM scutellarin was used as the scutellarin standard group in comparing the excipients efflux effect. Permeability of scutellarin was measured at 37° C. from the AP to BL direction and BL to AP direction after incubating in 5% CO2 for respectively 30 min, 60 min, and 90 min. […] After 90 min of incubation, solutions from both AP and BL sides were collected. Then the separately collected samples from each well of AP and BL sides were diluted with equal amounts of methanol before they were injected into the LC-MS for quantification of scutellarin. At 30, 60, 90 min of incubation, TEER values were respectively detected before the samples were drawn from the tested wells.
In the Caco-2 permeation analysis, if the calculated efflux ratio of one excipient group was lower than scutellarin standard group, this excipient might possibly be indicated to have the inhibition effect on MRP2.

[3] = human, Caco-2, 90 min, 100 μg/ml, pH 7.4

T1 sequence (Q92887 whole entry): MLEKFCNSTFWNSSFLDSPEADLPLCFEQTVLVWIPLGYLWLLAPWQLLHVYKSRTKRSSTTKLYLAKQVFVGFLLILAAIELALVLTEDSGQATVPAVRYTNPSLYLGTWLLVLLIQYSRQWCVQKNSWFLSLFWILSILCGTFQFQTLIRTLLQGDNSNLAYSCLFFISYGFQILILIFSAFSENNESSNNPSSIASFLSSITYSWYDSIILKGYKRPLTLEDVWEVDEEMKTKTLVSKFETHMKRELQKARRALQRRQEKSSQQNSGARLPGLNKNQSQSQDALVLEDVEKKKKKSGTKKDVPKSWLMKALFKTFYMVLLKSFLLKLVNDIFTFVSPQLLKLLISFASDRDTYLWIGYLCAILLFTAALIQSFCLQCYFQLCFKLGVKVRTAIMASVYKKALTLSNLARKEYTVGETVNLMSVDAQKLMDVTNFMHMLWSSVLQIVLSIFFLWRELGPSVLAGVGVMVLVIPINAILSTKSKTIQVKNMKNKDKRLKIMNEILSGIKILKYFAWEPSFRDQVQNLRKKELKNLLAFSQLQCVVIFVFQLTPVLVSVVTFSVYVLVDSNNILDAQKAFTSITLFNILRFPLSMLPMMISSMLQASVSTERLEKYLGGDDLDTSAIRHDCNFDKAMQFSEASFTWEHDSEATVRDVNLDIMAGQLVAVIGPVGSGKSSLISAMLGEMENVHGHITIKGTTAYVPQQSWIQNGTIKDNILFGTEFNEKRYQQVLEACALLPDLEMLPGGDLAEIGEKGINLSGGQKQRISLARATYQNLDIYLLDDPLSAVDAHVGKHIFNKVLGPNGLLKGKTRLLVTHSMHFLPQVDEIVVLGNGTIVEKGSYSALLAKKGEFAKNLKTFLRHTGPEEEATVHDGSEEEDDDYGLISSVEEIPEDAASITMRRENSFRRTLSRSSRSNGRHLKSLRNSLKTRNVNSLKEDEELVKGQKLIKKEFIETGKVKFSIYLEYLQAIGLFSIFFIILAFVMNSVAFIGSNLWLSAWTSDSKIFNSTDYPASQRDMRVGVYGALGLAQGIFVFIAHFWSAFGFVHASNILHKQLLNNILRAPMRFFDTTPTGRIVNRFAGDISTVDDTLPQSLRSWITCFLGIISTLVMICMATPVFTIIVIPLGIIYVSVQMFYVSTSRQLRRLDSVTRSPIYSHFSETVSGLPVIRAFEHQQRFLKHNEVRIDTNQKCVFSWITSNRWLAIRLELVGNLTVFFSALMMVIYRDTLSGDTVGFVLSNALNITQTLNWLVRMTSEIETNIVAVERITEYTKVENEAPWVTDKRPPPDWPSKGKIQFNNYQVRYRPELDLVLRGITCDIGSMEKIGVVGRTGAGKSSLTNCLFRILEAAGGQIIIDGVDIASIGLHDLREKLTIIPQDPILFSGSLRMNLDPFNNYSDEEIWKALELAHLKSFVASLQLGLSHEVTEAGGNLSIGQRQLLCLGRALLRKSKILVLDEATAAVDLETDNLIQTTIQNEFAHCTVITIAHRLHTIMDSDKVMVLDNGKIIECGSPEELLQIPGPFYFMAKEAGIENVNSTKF

O=C(O)[C@H]1O[C@@H](Oc2cc3oc(-c4ccc(O)cc4)cc(=O)c3c(O)c2O)[C@H](O)[C@@H](O)[C@@H]1O [Scutellarin, 4,5,6-trihydroxyflavone-7-glucuronide]
identification as MRP2 substrate with MRP2 inhibitor MK571 (Caco-2 monolayers [1]): identified as the substrate for MRP2

CCOCCOCCO [Transcutol ®, diethylene glycol monoethylether]
sequence of inhibition effects on MRP2 (human MRP2; within excipient group, p<0.05): PEG 2000>PEG 400>Transcutol® | PappAB (Caco-2 monolayers [2]; [3]): 2.69 ± 0.35 10^−6 cm · s^−1 | PappBA (Caco-2 monolayers [2]; [3]): 5.99 ± 0.52 10^−6 cm · s^−1

OC[C@H]1O[C@@H](O[C@H]2[C@H](O)[C@@H](O)C(O)O[C@@H]2CO)[C@H](O)[C@@H](O)[C@H]1O (stereo partly shown) [lactose]
PappAB (Caco-2 monolayers [2]; [3]): 1.44 ± 0.24 10^−6 cm · s^−1 | PappBA (Caco-2 monolayers [2]; [3]): 7.90 ± 0.43 10^−6 cm · s^−1

OC[C@H]1O[C@@H]2O[C@H]3[C@H](O)[C@@H](O)[C@@H](O[C@H]4[C@H](O)[C@@H](O)[C@@H](O[C@H]5[C@H](O)[C@@H](O)[C@@H](O[C@H]6[C@H](O)[C@@H](O)[C@@H](O[C@H]7[C@H](O)[C@@H](O)[C@@H](O[C@H]8[C@H](O)[C@@H](O)[C@@H](O[C@H]1[C@H](O)[C@H]2O)O[C@@H]8CO)O[C@@H]7CO)O[C@@H]6CO)O[C@@H]5CO)O[C@@H]4CO)O[C@@H]3CO [β-cyclodextrin]
scutellarin concentrations measured compared with scutellarin standard group (FIG. 2) (human MRP2; higher than standard means MRP2 inhibition): lower quantities of scutellarin than that of the standard group | PappAB (Caco-2 monolayers [2]; Caco-2): 4.04 ± 0.33 10^−6 cm · s^−1 | PappBA (Caco-2 monolayers [2]; Caco-2): 9.33 ± 0.36 10^−6 cm · s^−1

Pluronic ® F68
Efflux reduction sequence (Caco-2 monolayers [2]; Caco-2): Cremophor® RH>Pluronic® F68>Labrasol®>Pluronic® F127 | PappAB (Caco-2 monolayers [2]; Caco-2): 2.03 ± 0.35 10^−6 cm · s^−1 | PappBA (Caco-2 monolayers [2]; Caco-2): 4.38 ± 0.13 10^−6 cm · s^−1

Pluronic ® F127
Efflux reduction sequence (Caco-2 monolayers [2]; Caco-2): Cremophor® RH>Pluronic® F68>Labrasol®>Pluronic® F127 | PappAB (Caco-2 monolayers [2]; Caco-2): 1.84 ± 0.09 10^−6 cm · s^−1 | PappBA (Caco-2 monolayers [2]; Caco-2): 5.31 ± 0.49 10^−6 cm · s^−1

polyethylene glycol [PEG 400]
PappAB (Caco-2 monolayers [2]; Caco-2): 1.46 ± 0.08 10^−6 cm · s^−1 | PappBA (Caco-2 monolayers [2]; Caco-2): 1.96 ± 0.05 10^−6 cm · s^−1

polyethylene glycol [PEG 2000]
PappAB (Caco-2 monolayers [2]; Caco-2): 9.91 ± 0.35 10^−6 cm · s^−1 | PappBA (Caco-2 monolayers [2]; Caco-2): 12.91 ± 1.60 10^−6 cm · s^−1
